Experimental data taken from US10517867B2, “Posaconazole derivative, pharmaceutical composition and use thereof” (priority 2016, dated 2019).

Experiment: Solid stability test (stability chamber, HPLC total impurity)
Type: physicochemical
Details: not given

| Compound | Total impurity increment in 30 days |
| --- | --- |
| CC[C@@H]([C@H](C)O)n1ncn(-c2ccc(N3CCN(c4ccc(OC[C@@H]5CO[C@@](Cn6c[n+](C(C)OC(=O)NC7O[C@H](CO)[C@H](O)[C@H]7OC(=O)CNC)cn6)(c6ccc(F)cc6F)C5)cc4)CC3)cc2)c1=O (stereo partly drawn) [ST0028] | 1.62% |
| CC[C@@H]([C@H](C)O)n1ncn(-c2ccc(N3CCN(c4ccc(OC[C@@H]5CO[C@@](Cn6c[n+](C(C)OC(=O)N(C)c7ncccc7COC(=O)[C@@H](N)CCCNC)cn6)(c6ccc(F)cc6F)C5)cc4)CC3)cc2)c1=O (stereo partly drawn) [ST0038] | 1.06% |

Same assay, conditions: solid, packaged, 25° C.±2° C., relative humidity 60%±2%

| Compound | Total impurity increment in 30 days |
| --- | --- |
| CC[C@@H]([C@H](C)O)n1ncn(-c2ccc(N3CCN(c4ccc(OC[C@@H]5CO[C@@](Cn6c[n+](C(C)OC(=O)SCC(=O)[O-])cn6)(c6ccc(F)cc6F)C5)cc4)CC3)cc2)c1=O.[Cl-].[Na+] (stereo partly drawn) [ST0034] | 1.85% |
| CC[C@@H](C(C)OC(=O)OC(C)OC(=O)CN(C)C)n1ncn(-c2ccc(N3CCN(c4ccc(OC[C@@H]5CO[C@@](Cn6cncn6)(c6ccc(F)cc6F)C5)cc4)CC3)cc2)c1=O (stereo partly drawn) [Compound 0058] | 0.47% |
| CC[C@@H]([C@H](C)O)n1ncn(-c2ccc(N3CCN(c4ccc(OC[C@@H]5CO[C@@](Cn6c[n+](C(C)OC(=O)N(C)c7ncccc7COC(=O)[C@@H](N)CC(N)=O)cn6)(c6ccc(F)cc6F)C5)cc4)CC3)cc2)c1=O (stereo partly drawn) [ST0103] | 0.29% |
| CC[C@@H]([C@H](C)O)n1ncn(-c2ccc(N3CCN(c4ccc(OC[C@@H]5CO[C@@](Cn6c[n+](C(C)OC(=O)N(C)c7ncccc7COC(=O)[C@@H](N)CCNC)cn6)(c6ccc(F)cc6F)C5)cc4)CC3)cc2)c1=O (stereo partly drawn) [ST0040] | 1.34% |
| CC[C@@H](C(C)OC(=O)OC(C)OC(=O)CNS(=O)(=O)[O-])n1ncn(-c2ccc(N3CCN(c4ccc(OC[C@@H]5CO[C@@](Cn6cncn6)(c6ccc(F)cc6F)C5)cc4)CC3)cc2)c1=O.[Na+] (stereo partly drawn) [ST0057] | 1.96% |
| CC[C@@H]([C@H](C)O)n1ncn(-c2ccc(N3CCN(c4ccc(OC[C@@H]5CO[C@@](Cn6c[n+](C(C)OC(=O)OCCS)cn6)(c6ccc(F)cc6F)C5)cc4)CC3)cc2)c1=O (stereo partly drawn) [ST0036] | 0.87% |
| CC[C@@H]([C@H](C)O)n1ncn(-c2ccc(N3CCN(c4ccc(OC[C@@H]5CO[C@@](Cn6c[n+](CC(=O)[O-])cn6)(c6ccc(F)cc6F)C5)cc4)CC3)cc2)c1=O.[Cl-].[Na+] [ST0021] | 0.97% |
| CC[C@@H]([C@H](C)O)n1ncn(-c2ccc(N3CCN(c4ccc(OC[C@@H]5CO[C@@](Cn6c[n+](C(C)OC(=O)N(C)c7ncccc7COC(=O)[C@@H](N)CCCCN)cn6)(c6ccc(F)cc6F)C5)cc4)CC3)cc2)c1=O (stereo partly drawn) [ST0104] | 0.27% |
| CC[C@@H]([C@H](C)O)n1ncn(-c2ccc(N3CCN(c4ccc(OC[C@@H]5CO[C@@](Cn6c[n+](C(C)OC(=O)N(C)c7ncccc7COC(=O)[C@@H](N)CCC(N)=O)cn6)(c6ccc(F)cc6F)C5)cc4)CC3)cc2)c1=O (stereo partly drawn) [ST0102] | 0.36% |
| CC[C@@H]([C@H](C)O)n1ncn(-c2ccc(N3CCN(c4ccc(OC[C@@H]5CO[C@@](Cn6c[n+](C(C)OC(=O)N(C)c7ncccc7COC(=O)[C@@H](N)CO)cn6)(c6ccc(F)cc6F)C5)cc4)CC3)cc2)c1=O (stereo partly drawn) [ST0105] | 0.34% |
| CC[C@@H]([C@H](C)O)n1ncn(-c2ccc(N3CCN(c4ccc(OC[C@@H]5CO[C@@](Cn6c[n+](C(C)OC(=O)N(C)c7ncccc7COC(=O)CN)cn6)(c6ccc(F)cc6F)C5)cc4)CC3)cc2)c1=O (stereo partly drawn) [ST0101] | 0.47% |
| CC[C@@H]([C@H](C)OC(=O)OC(C)OC(=O)CNP(=O)([O-])[O-])n1ncn(-c2ccc(N3CCN(c4ccc(OC[C@@H]5CO[C@@](Cn6cncn6)(c6ccc(F)cc6F)C5)cc4)CC3)cc2)c1=O.[Na+].[Na+] (stereo partly drawn) [ST0055] | 0.85% |
| CC[C@@H]([C@H](C)OC(=O)OC(C)OC(=O)CC(=O)[O-])n1ncn(-c2ccc(N3CCN(c4ccc(OC[C@@H]5CO[C@@](Cn6cncn6)(c6ccc(F)cc6F)C5)cc4)CC3)cc2)c1=O.[Na+] (stereo partly drawn) [ST0048] | 0.95% |
| CC[C@@H]([C@H](C)OC(=O)OCCOCCOP(=O)([O-])[O-])n1ncn(-c2ccc(N3CCN(c4ccc(OC[C@@H]5CO[C@@](Cn6cncn6)(c6ccc(F)cc6F)C5)cc4)CC3)cc2)c1=O.[Na+].[Na+] [ST0060] | 0.83% |
| CC[C@@H]([C@H](C)O)n1ncn(-c2ccc(N3CCN(c4ccc(OC[C@@H]5CO[C@@](Cn6c[n+](C(C)OC(=O)N(C)c7ncccc7COC(=O)[C@@H](N)[C@@H](C)O)cn6)(c6ccc(F)cc6F)C5)cc4)CC3)cc2)c1=O (stereo partly drawn) [ST0106] | 0.32% |
| CC[C@@H]([C@H](C)O)n1ncn(-c2ccc(N3CCN(c4ccc(OC[C@@H]5CO[C@@](Cn6c[n+](C(C)OC(=O)OCCOP(=O)(O)O)cn6)(c6ccc(F)cc6F)C5)cc4)CC3)cc2)c1=O (stereo partly drawn) [ST0042] | 1.05% |

Experiment: Determination of solubility in deionized water (HPLC, external standard)
Details: 25 °C, water, thermodynamic from solid

| Compound | solubility at 30 min |
| --- | --- |
| CC[C@@H]([C@H](C)O)n1ncn(-c2ccc(N3CCN(c4ccc(OC[C@@H]5CO[C@@](Cn6c[n+](C(C)OC(=O)SC[C@H](N)C(=O)O)cn6)(c6ccc(F)cc6F)C5)cc4)CC3)cc2)c1=O (stereo partly drawn) [ST0030] | 21.8 mg/mL |
| CC[C@@H]([C@H](C)O)n1ncn(-c2ccc(N3CCN(c4ccc(OC[C@@H]5CO[C@@](Cn6c[n+](C(C)OC(=O)N(C)c7ncccc7COC(=O)[C@@H](N)CCNC)cn6)(c6ccc(F)cc6F)C5)cc4)CC3)cc2)c1=O (stereo partly drawn) [ST0040] | > 50 mg/mL |
| CC[C@@H]([C@H](C)O)n1ncn(-c2ccc(N3CCN(c4ccc(OC[C@@H]5CO[C@@](Cn6c[n+](C(C)OC(=O)NC7O[C@H](CO)[C@H](O)[C@H]7OC(=O)CNC)cn6)(c6ccc(F)cc6F)C5)cc4)CC3)cc2)c1=O (stereo partly drawn) [ST0028] | 35.7 mg/mL |
| CC[C@@H]([C@H](C)O)n1ncn(-c2ccc(N3CCN(c4ccc(OC[C@@H]5CO[C@@](Cn6c[n+](C(C)OC(=O)N(C)c7ncccc7COC(=O)[C@@H](N)CCCNC)cn6)(c6ccc(F)cc6F)C5)cc4)CC3)cc2)c1=O (stereo partly drawn) [ST0038] | > 50 mg/mL |
| CC[C@@H]([C@H](C)O)n1ncn(-c2ccc(N3CCN(c4ccc(OC[C@@H]5CO[C@@](Cn6c[n+](C(C)OC(=O)OCCOP(=O)(O)O)cn6)(c6ccc(F)cc6F)C5)cc4)CC3)cc2)c1=O (stereo partly drawn) [ST0042] | > 50 mg/mL |

More lines, now with the values ahead:

| solubility at 30 min | Compound |
| --- | --- |
| > 50 mg/mL | CC[C@@H]([C@H](C)OC(=O)OC(C)OC(=O)CCCCCCOS(=O)(=O)[O-])n1ncn(-c2ccc(N3CCN(c4ccc(OC[C@@H]5CO[C@@](Cn6cncn6)(c6ccc(F)cc6F)C5)cc4)CC3)cc2)c1=O.[Na+] (stereo partly drawn) [ST0081] |
| > 50 mg/mL | CC[C@@H](C(C)OC(=O)OC(C)OC(=O)CCCCOP(=O)([O-])[O-])n1ncn(-c2ccc(N3CCN(c4ccc(OC[C@@H]5CO[C@@](Cn6cncn6)(c6ccc(F)cc6F)C5)cc4)CC3)cc2)c1=O.[Na+].[Na+] (stereo partly drawn) [ST0068] |
| > 50 mg/mL | CC[C@@H]([C@H](C)OC(=O)OCCOCCOCCOP(=O)([O-])[O-])n1ncn(-c2ccc(N3CCN(c4ccc(OC[C@@H]5CO[C@@](Cn6cncn6)(c6ccc(F)cc6F)C5)cc4)CC3)cc2)c1=O.[Na+].[Na+] [ST0061] |
| > 50 mg/mL | CC[C@@H](C(C)OC(=O)OC(C)OC(=O)CN(C)S(=O)(=O)[O-])n1ncn(-c2ccc(N3CCN(c4ccc(OC[C@@H]5CO[C@@](Cn6cncn6)(c6ccc(F)cc6F)C5)cc4)CC3)cc2)c1=O.[Na+] (stereo partly drawn) [ST0056] |
| > 50 mg/mL | CC[C@@H](C(C)OC(=O)OC(C)OC(=O)CNS(=O)(=O)[O-])n1ncn(-c2ccc(N3CCN(c4ccc(OC[C@@H]5CO[C@@](Cn6cncn6)(c6ccc(F)cc6F)C5)cc4)CC3)cc2)c1=O.[Na+] (stereo partly drawn) [ST0057] |
| 25.2 mg/mL | CC[C@@H]([C@H](C)OC(=O)OC(C)OC(=O)C(O)COP(=O)([O-])[O-])n1ncn(-c2ccc(N3CCN(c4ccc(OC[C@@H]5CO[C@@](Cn6cncn6)(c6ccc(F)cc6F)C5)cc4)CC3)cc2)c1=O.[Na+].[Na+] (stereo partly drawn) [ST0089] |
| > 50 mg/mL | CC[C@@H]([C@H](C)OC(=O)OCCOP(=O)([O-])[O-])n1ncn(-c2ccc(N3CCN(c4ccc(OC[C@@H]5CO[C@@](Cn6cncn6)(c6ccc(F)cc6F)C5)cc4)CC3)cc2)c1=O.[Na+].[Na+] [ST0059] |
| 30.5 mg/mL | CC[C@@H]([C@H](C)O)n1ncn(-c2ccc(N3CCN(c4ccc(OC[C@@H]5CO[C@@](Cn6c[n+](C(C)OC(=O)N(C)c7ncccc7CN)cn6)(c6ccc(F)cc6F)C5)cc4)CC3)cc2)c1=O (stereo partly drawn) [ST0032] |
| > 50 mg/mL | CC[C@@H]([C@H](C)O)n1ncn(-c2ccc(N3CCN(c4ccc(OC[C@@H]5CO[C@@](Cn6c[n+](C(C)OC(=O)N(C)c7ncccc7CNC)cn6)(c6ccc(F)cc6F)C5)cc4)CC3)cc2)c1=O (stereo partly drawn) [ST0037] |
| > 50 mg/mL | CC[C@@H](C(C)OC(=O)OC(C)OC(=O)CCOS(=O)(=O)[O-])n1ncn(-c2ccc(N3CCN(c4ccc(OC[C@@H]5CO[C@@](Cn6cncn6)(c6ccc(F)cc6F)C5)cc4)CC3)cc2)c1=O.[Na+] (stereo partly drawn) [ST0076] |
| > 50 mg/mL | CC[C@@H](C(C)OC(=O)OC(C)OC(=O)COS(=O)(=O)[O-])n1ncn(-c2ccc(N3CCN(c4ccc(OC[C@@H]5CO[C@@](Cn6cncn6)(c6ccc(F)cc6F)C5)cc4)CC3)cc2)c1=O.[Na+] (stereo partly drawn) [ST0075] |
| 23.4 mg/mL | CC[C@@H](C(C)OC(=O)OC(C)OC(=O)CCCCCCCCOP(=O)([O-])[O-])n1ncn(-c2ccc(N3CCN(c4ccc(OC[C@@H]5CO[C@@](Cn6cncn6)(c6ccc(F)cc6F)C5)cc4)CC3)cc2)c1=O.[Na+].[Na+] (stereo partly drawn) [ST0071] |
| > 50 mg/mL | CC[C@@H]([C@H](C)OC(=O)OC(C)OC(=O)CCCOP(=O)([O-])[O-])n1ncn(-c2ccc(N3CCN(c4ccc(OC[C@@H]5CO[C@@](Cn6cncn6)(c6ccc(F)cc6F)C5)cc4)CC3)cc2)c1=O.[Na+].[Na+] (stereo partly drawn) [ST0062] |
| > 50 mg/mL | CC[C@@H]([C@H](C)OS(=O)(=O)[O-])n1ncn(-c2ccc(N3CCN(c4ccc(OC[C@@H]5CO[C@@](Cn6cncn6)(c6ccc(F)cc6F)C5)cc4)CC3)cc2)c1=O.[Na+] [ST0095] |
| 43.7 mg/mL | CC[C@@H](C(C)OC(=O)OC(C)OC(=O)CCCCCCCOP(=O)([O-])[O-])n1ncn(-c2ccc(N3CCN(c4ccc(OC[C@@H]5CO[C@@](Cn6cncn6)(c6ccc(F)cc6F)C5)cc4)CC3)cc2)c1=O.[Na+].[Na+] (stereo partly drawn) [ST0069] |
| > 50 mg/mL | CC[C@@H]([C@H](C)OC(=O)OC(C)OC(=O)COP(=O)([O-])[O-])n1ncn(-c2ccc(N3CCN(c4ccc(OC[C@@H]5CO[C@@](Cn6cncn6)(c6ccc(F)cc6F)C5)cc4)CC3)cc2)c1=O.[Na+].[Na+] (stereo partly drawn) [ST0065] |

Same assay, conditions: 25±2° C., after 30 min

| Compound | Solubility |
| --- | --- |
| CC[C@@H]([C@H](C)OC(=O)OC(C)OC(=O)CN(C)P(=O)([O-])[O-])n1ncn(-c2ccc(N3CCN(c4ccc(OC[C@@H]5CO[C@@](Cn6cncn6)(c6ccc(F)cc6F)C5)cc4)CC3)cc2)c1=O.[Na+].[Na+] (stereo partly drawn) [ST0054] | 40.9 mg/mL |
| CC[C@@H]([C@H](C)OC(=O)OC(C)OC(=O)CNP(=O)([O-])[O-])n1ncn(-c2ccc(N3CCN(c4ccc(OC[C@@H]5CO[C@@](Cn6cncn6)(c6ccc(F)cc6F)C5)cc4)CC3)cc2)c1=O.[Na+].[Na+] (stereo partly drawn) [ST0055] | 35.4 mg/mL |
| CC[C@@H]([C@H](C)OC(=O)OCCOCCOP(=O)([O-])[O-])n1ncn(-c2ccc(N3CCN(c4ccc(OC[C@@H]5CO[C@@](Cn6cncn6)(c6ccc(F)cc6F)C5)cc4)CC3)cc2)c1=O.[Na+].[Na+] [ST0060] | >50 mg/mL |
